Measurements: patent US10398751B2, “Pharmaceutical compositions of water soluble peptides with poor solubility in isotonic conditions and methods for their use” (STRONGBRIDGE IRELAND LIMITED, priority 2016, dated 2019)
Where two headings read alike, the source gives them in different places.

Columns and labels:
[1] = Comparative surface tension of peptides in water for injection; type: physicochemical; details: 10 mg/ml in WFI; for Effect of reduced surface tension (%): baseline WFI; for Water surface tension (dyne/cm): baseline WFI 52
[2] = Emulsification of cottonseed oil and water for injection; type: physicochemical; details: 16.6 weight % cottonseed oil, 74.2 weight % WFI, 9.2 weight % peptide, room temperature
Method: Based on its amphiphilic properties, veldoreotide acetate was evaluated by means of emulsion formulation. […] Thus, veldoreotide acetate may be considered a w/o ionic surfactant or hydrotrope with a hydrophilic lipophilic balance (HLB) of 6.
The samples were mixed using 25G syringe and vortexed at room temperature.
Veldoreotide was formulated as a water in oil emulsion using 80% (wt %) cottonseed oil, 20% (wt %) water for injection (WFI) and 1% (wt %) veldoreotide acetate. Specifically, 10 mg of veldoreotide acetate was dissolved in 200 uL WFI in a 5 mL glass vial, 800 mg of cottonseed oil was added and the resulting mixture was stirred under magnetic stirring at room temperature for 15 minutes at 1000 rpm. The emulsion was then viewed under the light microscope and stored under refrigeration. The resulting emulsion was stable and found to be injectable via 27G needle.

[3] = cited from earlier work
[4] = Density, pH and surface tension of solutions (capillary method); type: physicochemical
Method: Tween 80 was used as a control surfactant for comparison. Densities were measured on 1 mL fixed volume samples. […] The effect of veldoreotide acetate on the pH of double distilled water (DDW) was the same at all veldoreotide acetate concentrations. The pH of DDW of 5.0 was reduced to pH 4.5. The effect of veldoreotide acetate on the density of DDW (starting density of DDW was 1.003 g/ml) was concentration dependent from 1.4 mg/ml to 21.5 mg/ml with density ranging from 0.986 to 0.998 g/ml respectively. However, at veldoreotide acetate concentrations of 45 and 102 mg/ml the density was increased above the starting density of DDW. […] The effect of veldoreotide acetate on the surface tension of DDW (starting surface tension was 64.9 dyne/cm) was consistent with veldoreotide acetate behaving as a peptide amphiphile (surfactant). The surface tension of DDW was reduced by veldoreotide acetate at maximum from 64.9 to 45 dyne/cm. In order to elucidate the meaning of this effect, Tween 80 was used as a reference surfactant. Other surfactants include Polexamer 188. The reduction of surface tension induced by Tween 80 was in the range of 40% (from 64.9 dyne/cm to about 39 dyne/cm), in comparison to veldoreotide acetate of 30% (from 64.9 dyne/cm to about 45 dyne/cm). Note that, under these experimental conditions; the effect of Tween 80 indicated a concentration-effect relationship. Whereas, the effect of veldoreotide acetate on the reduction of surface tension was at the same range for all concentrations tested.
The data of table 4 show the surface activity of highly concentrated COR005 acetate (200 mg/ml), with or without additives in WFI, which emulates the preparation conditions of the primary emulsion of the microspheres. The results of Test 1 and 2 (Table 4) show the effect of COR005 acetate on the surface tension of water. When COR005 acetate is dissolved in water the surface tension is reduced by about 36%, from 68.5 dyne/cm for the water alone to 44 dyne/cm for the solution of water with CR005 acetate at 200 mg/ml.

SMILES	Effect of reduced surface tension (%) [1] [%]	Water surface tension (dyne/cm) [1] [dyne/cm]	emulsification [2]	surface area ([3]; microspheres prepared from PLGA and octreotide acetate with 0 glucose (Biomaterials, 2004, 25, 1919-1927)) [m^2/g]	surface area ([3]; microspheres prepared from PLGA and octreotide acetate with 0.2% of glucose (Biomaterials, 2004)) [m^2/g]	surface area ([3]; microspheres prepared from PLGA and octreotide acetate with 1% of glucose (Biomaterials, 2004)) [m^2/g]	% change in surface tension compared to baseline ([4]; 7 mg/ml in DDW, 25° C.) [%]	Density (g/ml) Weighted 1 ml ([4]; 7 mg/ml in DDW, 25° C.) [g/mL]	Surface tension (dyne/cm) capillary method ([4]; 7 mg/ml in DDW, 25° C.) [dyne/cm]	% change in surface tension compared to baseline ([4]; 14 mg/ml in DDW, 25° C.) [%]	Density (g/ml) Weighted 1 ml ([4]; 14 mg/ml in DDW, 25° C.) [g/mL]	Surface tension (dyne/cm) capillary method ([4]; 14 mg/ml in DDW, 25° C.) [dyne/cm]	% change in surface tension compared to baseline ([4]; 28 mg/ml in DDW, 25° C.) [%]	Density (g/ml) Weighted 1 ml ([4]; 28 mg/ml in DDW, 25° C.) [g/mL]	Surface tension (dyne/cm) capillary method ([4]; 28 mg/ml in DDW, 25° C.) [dyne/cm]	surface tension of DDW solution ([4]; DDW pH 5.0, 25° C., baseline 64.9 dyne/cm (text summary, concentration not specified))	reduction of surface tension of water ([4]; DDW, 25° C., baseline 64.9 dyne/cm) [%]
CC(C)C[C@H](NC(=O)[C@@H](COC(C)(C)C)NC(=O)[C@H](Cc1ccc(O)cc1)NC(=O)[C@H](CO)NC(=O)[C@H](Cc1c[nH]c2ccccc12)NC(=O)[C@H](Cc1cnc[nH]1)NC(=O)[C@@H]1CCC(=O)N1)C(=O)N[C@@H](CCCNC(=N)N)C(=O)N1CCC[C@H]1C(=O)NNC(N)=O [Goserelin]	−37	33	least potential for emulsion formation														
C[C@@H](O)[C@@H]1NC(=O)[C@H](CCCCN)NC(=O)[C@@H](Cc2c[nH]c3ccccc23)NC(=O)[C@H](Cc2ccccc2)NC(=O)[C@@H](NC(=O)[C@H](N)Cc2ccccc2)CSSC[C@@H](C(=O)N[C@H](CO)[C@@H](C)O)NC1=O [Octreotide]	−27	38	weak emulsification efficiency	4.4	4.7	4.9											
CCCCCCCC/C=C\CCCCCCCC(=O)OCCOCC(OCCO)C1OCC(OCCO)C1OCCO (centres unmarked) [Tween 80, reference compound]							−39	0.9945	39.6	−39	0.988	39.35	−40	0.975	38.8	about 39 dyne/cm	~40
